How the values were obtained:
Type in all cases: in vivo
Avena fatua = experiment: Test Example 5: herbicidal effect by foliage application, plastic box (symbol I); details: 320 g/ha, 3 weeks after application
Method in brief: (§1)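 Greenhouse foliar test: seedlings at 14 days, grown 25° C. to 30° C. in sterilized diluvial soil; compound applied as an aqueous dilution of an emulsion; response read 3 weeks after spraying.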

Galium spurium = experiment: Test Example 4: herbicidal effect by soil treatment (symbol Q); details: application herbicide amount 320 g/ha
Method in brief: (§2)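 Seeds were sown in sterilized diluvial soil, covered with about 1.5 cm of soil, and the soil surface was sprayed with a water-diluted emulsion of the compound at a predetermined rate. Plants grew in a greenhouse at 25° C. to 30° C.; effects were scored visually 3 weeks after application.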

[1] = tested on: Echinochloa crus-galli var. crus-galli; experiment: Test Example 4: herbicidal effect by soil treatment (symbol H); details: application herbicide amount 320 g/ha
Method in brief: as §2

[2] = tested on: Echinochloa crus-galli var. crus-galli; experiment: Test Example 3: herbicidal effect by foliage application, Wagner pot (symbol H); details: application herbicide amount 320 g/ha
Method in brief: (§3)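 The compound, formulated as an emulsion and diluted with water to a predetermined rate, is applied uniformly to leaves of two-week-old seedlings growing in submerged alluvial soil at 25–30 °C. Rice is included. Each plant is assessed 3 weeks later using defined criteria.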

Cyperus difformis = experiment: Test Example 3: herbicidal effect by foliage application, Wagner pot (symbol E); details: application herbicide amount 320 g/ha
Method in brief: as §3

corn = experiment: Test Example 4: effect on crop by soil treatment (symbol c); details: application herbicide amount 320 g/ha
Method in brief: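 Soil-treatment setup: crop and weed seeds were spot-sown into sterilized diluvial soil, then buried beneath approximately 1.5 cm of it, and the boxes were housed in a 25–30° C. greenhouse.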

Scirpus juncoides = experiment: Test Example 2: herbicidal activity, application during weed generation in submerged conditions (symbol B); details: Table 23; application herbicide amount 320 g/ha; grade 0-5 by criteria of Test Example 1
Method in brief: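 Treatment timing was the one- to two-leaf stage, with diluted emulsifiable compound dropped onto the paddy water (depth 4 cm) over alluvial soil. All three species grew from a mixed sowing in a 25° C. to 30° C. greenhouse. Injury was judged by eye 3 weeks on.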

Setaria viridis = experiment: Test Example 5: herbicidal effect by foliage application, plastic box (symbol G); details: 320 g/ha, 3 weeks after application
Method in brief: as §1

Alopecurus myosuroides = experiment: Test Example 5: herbicidal effect by foliage application, plastic box (symbol J); details: 320 g/ha, 3 weeks after application
Method in brief: as §1

wheat = experiment: Test Example 5: effect on crop by foliage application, plastic box (symbol e); details: 320 g/ha, 3 weeks after application
Method in brief: (§4)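 Plants were raised from seed in a greenhouse (25° C. to 30° C.) after sowing in a plastic box of sterilized diluvial soil.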

rice = experiment: Test Example 4: effect on crop by soil treatment (symbol b); details: application herbicide amount 320 g/ha
Method in brief: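 Crop seed is sown in spots together with several weed species in a box of sterilized diluvial soil. It is covered by about 1.5 cm of soil and kept in a greenhouse held between 25° C. and 30° C.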

Lolium multiflorum Lam. [3] = experiment: Test Example 4: herbicidal effect by soil treatment (symbol K); details: application herbicide amount 320 g/ha
Method in brief: as §2

Lolium multiflorum Lam. [4] = experiment: Test Example 5: herbicidal effect by foliage application, plastic box (symbol K); details: 320 g/ha, 3 weeks after application
Method in brief: as §1

Apera spica-venti = experiment: Test Example 4: herbicidal effect by soil treatment (symbol L); details: application herbicide amount 320 g/ha
Method in brief: as §2

rice plant = experiment: Test Example 5: effect on crop by foliage application, plastic box (symbol b); details: 320 g/ha, 3 weeks after application
Method in brief: as §4

Stellaria media = experiment: Test Example 5: herbicidal effect by foliage application, plastic box (symbol P); details: 320 g/ha, 3 weeks after application
Method in brief: as §1

SMILES | I: Avena fatua, herbicidal effect grade (Avena fatua) | Q: Galium spurium, herbicidal effect grade (Galium spurium) | H: Echinochloa crus-galli var. crus-galli, herbicidal effect grade [1] | herbicidal effect on H (Echinochloa crus-galli var. crus-galli), grade 0-5 [2] | herbicidal effect on E, grade 0-5 (Cyperus difformis) | c: corn, effect on crop grade (corn) | Herbicidal effect grade, B: Scirpus juncoides (Scirpus juncoides) | G: Setaria viridis, herbicidal effect grade (Setaria viridis) | J: Alopecurus myosuroides, herbicidal effect grade (Alopecurus myosuroides) | e: wheat, effect on crop grade (wheat) | b: directly sowed rice plant, effect on crop grade (rice) | K: Lolium multiflorum Lam., herbicidal effect grade (Lolium multiflorum Lam. [3]) | K: Lolium multiflorum Lam., herbicidal effect grade (Lolium multiflorum Lam. [4]) | L: Apera spica-venti, herbicidal effect grade (Apera spica-venti) | b: directly sowed rice plant, effect on crop grade (rice plant) | P: Stellaria media, herbicidal effect grade (Stellaria media)
CCC(CCC1CC(O)=C(c2c(C)cc(C)cc2C)C1=O)=NOC (mixture of isomers) [4-001] | 4 (Herbicidal ratio of 70% or higher and lower than 90%) | 0 (Herbicidal ratio of 5% or lower (almost no effect)) | 0 (Herbicidal ratio of 5% or lower (almost no effect)) | 2 (Herbicidal ratio of 20% or higher and lower than 40%) | 0 (Herbicidal ratio of 5% or lower (almost no effect)) | 0 (Herbicidal ratio of 5% or lower (almost no effect)) | 0 (Herbicidal ratio of 5% or lower (almost no effect)) | 1 (Herbicidal ratio of 5% or higher and lower than 20%) | 5 (Herbicidal ratio of 90% or more (almost completely withered)) | 0 (Herbicidal ratio of 5% or lower (almost no effect)) | 5 (Herbicidal ratio of 90% or more (almost completely withered)) | 5 (Herbicidal ratio of 90% or more (almost completely withered)) | 5 (Herbicidal ratio of 90% or more (almost completely withered)) | 5 (Herbicidal ratio of 90% or more (almost completely withered)) | 4 (Herbicidal ratio of 70% or higher and lower than 90%) | 
COCC(=O)CC1CC(O)=C(c2c(C)cc(C)cc2C)C1=O (centres unmarked) [2-007] | 0 (Herbicidal ratio of 5% or lower (almost no effect)) | 0 (Herbicidal ratio of 5% or lower (almost no effect)) | 5 (Herbicidal ratio of 90% or more (almost completely withered)) | 5 (Herbicidal ratio of 90% or more (almost completely withered)) | 5 (Herbicidal ratio of 90% or more (almost completely withered)) | 0 (Herbicidal ratio of 5% or lower (almost no effect)) | 0 (Herbicidal ratio of 5% or lower (almost no effect)) | 0 (Herbicidal ratio of 5% or lower (almost no effect)) | 4 (Herbicidal ratio of 70% or higher and lower than 90%) | 0 (Herbicidal ratio of 5% or lower (almost no effect)) | 5 (Herbicidal ratio of 90% or more (almost completely withered)) | 5 (Herbicidal ratio of 90% or more (almost completely withered)) | 4 (Herbicidal ratio of 70% or higher and lower than 90%) | 3 (Herbicidal ratio of 40% or higher and lower than 70%) | 3 (Herbicidal ratio of 40% or higher and lower than 70%) | 2 (Herbicidal ratio of 20% or higher and lower than 40%)
CCOC(=O)C(C(=O)c1ccccc1)C1CC(O)=C(c2c(C)cc(C)cc2C)C1=O (centres unmarked) [2-008] | 0 (Herbicidal ratio of 5% or lower (almost no effect)) | 0 (Herbicidal ratio of 5% or lower (almost no effect)) | 0 (Herbicidal ratio of 5% or lower (almost no effect)) | 0 (Herbicidal ratio of 5% or lower (almost no effect)) | 0 (Herbicidal ratio of 5% or lower (almost no effect)) | 0 (Herbicidal ratio of 5% or lower (almost no effect)) | 0 (Herbicidal ratio of 5% or lower (almost no effect)) | 3 (Herbicidal ratio of 40% or higher and lower than 70%) | 3 (Herbicidal ratio of 40% or higher and lower than 70%) | 0 (Herbicidal ratio of 5% or lower (almost no effect)) | 0 (Herbicidal ratio of 5% or lower (almost no effect)) | 3 (Herbicidal ratio of 40% or higher and lower than 70%) | 4 (Herbicidal ratio of 70% or higher and lower than 90%) | 0 (Herbicidal ratio of 5% or lower (almost no effect)) | 4 (Herbicidal ratio of 70% or higher and lower than 90%) | 0 (Herbicidal ratio of 5% or lower (almost no effect))
CCc1cc(C)cc(C)c1C1=C(O)CC(CC(C)=NOC)C1=O (centres unmarked) [6-007] | 3 (Herbicidal ratio of 40% or higher and lower than 70%) | 0 (Herbicidal ratio of 5% or lower (almost no effect)) | 5 (Herbicidal ratio of 90% or more (almost completely withered)) | 5 (Herbicidal ratio of 90% or more (almost completely withered)) | 5 (Herbicidal ratio of 90% or more (almost completely withered)) | 5 (Herbicidal ratio of 90% or more (almost completely withered)) | 3 (Herbicidal ratio of 40% or higher and lower than 70%) | 5 (Herbicidal ratio of 90% or more (almost completely withered)) | 5 (Herbicidal ratio of 90% or more (almost completely withered)) | 5 (Herbicidal ratio of 90% or more (almost completely withered)) | 5 (Herbicidal ratio of 90% or more (almost completely withered)) | 5 (Herbicidal ratio of 90% or more (almost completely withered)) | 5 (Herbicidal ratio of 90% or more (almost completely withered)) | 5 (Herbicidal ratio of 90% or more (almost completely withered)) | 5 (Herbicidal ratio of 90% or more (almost completely withered)) | 

From US11000033B2, “Ketone or oxime compound, and herbicide” (NISSAN CHEMICAL CORPORATION, priority 2014, dated 2021)
